Laboratory results: patent publication US20160199497A1, “Cholesterol Ester-Depleting Nanomedicine for Non-toxic Cancer Chemotherapy” (Purdue Research Foundation, priority 2014, published 2016)

Legend:
MIA PaCa-2 cell = experiment: Transwell cell migration and invasion assays; type: cell-based, human
Procedure: (§1) Cell viability was measured by Thiazolyl Blue Tetrazolium Blue (MTT) colorimetric assay (Sigma). Cell migration and invasion assays were performed in Transwell chambers (Corning) coated with and without Matrigel (BD Bioscience) respectively. 20% FBS and 0.2 ng/ml EGF were used as chemoattractant. 12 h (migration) or 24 h (invasion) after cells were seeded on top of the membrane, penetrating cells were stained with PI and counted under confocal microscope.

PANC-1 = experiment: MTT cell viability, PANC-1; type: cell-based, human
Procedure: as §1

[1] = Blood bioavailability / pharmacokinetics of avasimibe by LC-MS; type: in vivo, nude mice; conditions: nude, mouse, whole blood; oral avasimibe 15 mg/kg; read-out: area under curve (AUC) of avasimibe
Procedure: To compare the blood-bioavailability of avasimibe for oral and intravenous administrations, avasimibe solution in PBS (15 mg/kg) was orally administered to nude mice without tumors (n=3) using a plastic feeding tube (20 GA×38 mm). Avasimin solution in PBS (75 mg/kg, containing 15 mg/kg avasimibe) was intravenously administered to nude mice without tumor (n=3) through the tail vein. Blood samples (2 μl) were collected from the dorsal pedal vein at different time points post administration. […] To extract avasimibe, acetone (6 μl) was added to the blood solution, vortexed, and then the solution was centrifuged (×5000 g, 5 min). The supernatant (6 μl) was collected and dried under vacuum. The sample was stored at −20° C., and dissolved in 50 μl of methanol just before analysis. A linear standard curve of avasimibe in blood ranging of 0.01-100 μg/ml was created using the same extraction method described above. avasimibe concentration was determined using a liquid chromatography-mass spectroscopy (LC-MS) (Agilent 1200 HPLC-Agilent 6460 QQQ mass spec). […]
Based on this model, pharmacokinetic values for avasimibe delivered by intravenous administration of avasimin were determined including the initial volume of distribution, […]
The terminal and distribution half-times for two-compartment model were measured using the equations above, described in a previous report.

HPDE6 = experiment: MTT cell viability, HPDE6; type: cell-based; conditions: Homo sapiens; normal cells
Procedure: as §1

PC3 cells = experiment: Cell viability IC50 in PC3 cells; type: cell-based; conditions: Homo sapiens, PC-3
tumors = experiment: Combination of avasimibe and gemcitabine in mice with tumors; type: in vivo; conditions: molar ratio about 5:1 to about 15:1 avasimibe to gemcitabine
[2] = system: MIA PaCa-2 orthotopic tumors; experiment: Orthotopic mouse model of pancreatic cancer (MIA PaCa-2 luc/mCherry); type: in vivo
Procedure: In vivo study in orthotopic mouse model: All animal experiments were conducted following protocols approved by Purdue Animal Care and Use Committee (PACUC). NOD/scid/IL2R γ null (NSG) mice were purchased from In Vivo Therapeutics Core at Indiana University Simon Cancer Center (Indiana University, IN) under a Material Transfer Agreement with Jackson Laboratories, Inc. Orthotopic mouse model of pancreatic cancer was established following previously described protocol (Gu D, et al. (2013) Mol Cancer Ther 12(6):1038-1048.). MIA PaCa-2 cells with stable expression of luciferase and mCherry were collected and suspended at a concentration of 10×10^6 cells/ml. A total of 5×10^5 tumor cells in 50 μl medium was directly injected into the pancreas of NSG mice at 4-6 weeks old. After recovery from surgery, tumor growth was monitored by bioluminescent imaging using In Vivo Imaging System (IVIS).
In these studies, mice were randomly divided into two groups. For the treatment with avasimibe at 15 mg/kg, intraperitoneal (IP) injection was used on a daily base, starting one week after tumor cell implantation. After treated for 4 weeks, all the mice were sacrificed. Tumors and metastatic lesions in abdominal cavity, lymph nodes, liver, spleen, kidney, lung and heat were visualized with IVIS by mCherry fluorescent signal. Tumor volume and weight were measured ex vivo. Histological examination was performed to tumor and organ tissue slides after stained with Hematoxylin and eosin (H&E).
Murine paraffin-embedded slides were deparaffinized and rehydrated. Then antigens were retrieved in antigen unmasking solution (Vector Laboratories) with a 2100-Retriever (PickCell Laboratories). Samples were used to TUNEL assay (Roche, 11684817910) according to manufacturer's protocol. Fluorescent images were taken using Nikon A1R confocal microscopy under 40× objective.

pancreatic cancer cells [3] = experiment: Fluorescence imaging of DiI labeled LDL uptake; type: cell-based, human
Procedure: DiI labeled LDL was made following previously described method (de Smidt P C & van Berkel T J C (1990) Cancer Res 50(23):7476-7482.). Cells were cultured in medium containing 10% lipodeficient serum with or without avasimibe treatment for 2 days. Then DiI-LDL was added to the medium at 50 μg/ml for 3 hours. Fluorescence images were acquired immediately after 3 h incubation using confocal microscope. The LDL uptake was quantified using ImageJ by analyzing the area fraction of uptake LDL particles out of the total cellular area.

MIA PaCa-2 = experiment: MTT cell viability, MIA PaCa-2; type: cell-based, human
Procedure: as §1

[4] = system: GRP78, ATF4, CHOP in pancreatic cancer cells; experiment: Immunoblotting of ER stress markers; type: cell-based, human; conditions: time course
Procedure: After indicated treatments, cells were harvested and lysed in AMI lysis buffer (Active Motif) supplemented with protease and phosphatase inhibitor cocktail. Protein concentration was determined using the Bio-Rad protein assay kit. Protein extraction was subjected to immunoblotting with the antibodies against PTEN (Cell Signaling, […]), HMG CoA reductase (Biovision, 3952-100), ACAT-1 (Santa Cruz, sc-69836), GRP78 (Santa Cruz, sc-13968), ATF4 (Cell Signaling, 11815), CHOP (Cell Signaling, 2895), p-ERK1/2 (Cell Signaling, 4370S), ERK1/2 (Cell Signaling, 9102), p-Akt (Cell Signaling, […]), Akt (Cell Signaling, 4691), caveolin-1 (Cell Signaling, […]), SREBP-1 (Santa Cruz, 13551), and β-actin (Sigma, A5441). β-Actin was used as loading control for normalization.

[5] = molecular target: HSA (human serum albumin) (Homo sapiens, UniProt P02768); experiment: Avasimibe binding to HSA: circular dichroism, Trp-214 fluorescence quenching, warfarin competitive binding
HSA (human serum albumin), sequence (P02768 25-609): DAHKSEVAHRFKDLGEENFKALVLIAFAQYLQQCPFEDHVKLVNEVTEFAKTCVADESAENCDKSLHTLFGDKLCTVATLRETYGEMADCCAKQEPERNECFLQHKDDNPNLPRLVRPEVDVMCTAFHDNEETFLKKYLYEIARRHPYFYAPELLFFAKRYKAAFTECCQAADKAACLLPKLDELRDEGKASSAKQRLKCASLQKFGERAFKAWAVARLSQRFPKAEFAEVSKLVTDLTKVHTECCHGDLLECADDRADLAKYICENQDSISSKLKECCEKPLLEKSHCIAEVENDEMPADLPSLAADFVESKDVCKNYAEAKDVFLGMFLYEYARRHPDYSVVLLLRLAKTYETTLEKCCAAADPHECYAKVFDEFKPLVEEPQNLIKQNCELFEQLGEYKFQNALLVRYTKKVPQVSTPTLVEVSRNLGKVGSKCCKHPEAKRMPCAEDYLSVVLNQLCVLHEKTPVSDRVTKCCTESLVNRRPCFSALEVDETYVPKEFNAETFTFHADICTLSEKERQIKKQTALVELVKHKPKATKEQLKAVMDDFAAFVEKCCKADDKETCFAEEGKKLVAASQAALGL
Excerpt: A quartz cell of 1 mm path length was used for spectrum measurement (190-260 nm). The spectra were collected with a data pitch of 1 nm, a scan speed of 10 nm per minute, and bandwidth of 1 nm. Each spectrum was the average of three scans.

pancreatic cancer cells [6] = experiment: CE level in pancreatic cancer cells (Raman spectromicroscopy, ESI-MS); type: cell-based, human
Procedure: Label-free Raman spectromicroscopy, including stimulated Raman scattering (SRS) microscopy, coherent anti-stokes Raman scattering (CARS) microscopy and spontaneous Raman spectroscopy, was performed on unstained tissue slices (˜15 μm) or cells without any processing or labeling. SRS imaging was conducted using a femtosecond laser source, with the laser beating frequency tuned to the C-H stretching vibration mode at 2845 cm−1. The typical acquisition time for a 512×512 pixel image was 1.12 second.
CARS imaging and confocal Raman spectral analysis from individual LDs were performed on a single platform as described previously (40). A 5-picosecond laser at 707 nm was used as excitation beam for Raman spectral acquisition. Acquisition time for a typical spectra from individual LDs was 20 s, with the beam power maintained around 15 mW at sample. For each specimen, at least 10 spectra from individual LDs in different locations or cells were obtained.
LD amount was quantified based on the SRS images using software ImageJ. […] Area fraction of LDs out of total area of tissues or cells were measured to quantize the LD amount. […] The percentage of CE out of total lipids was used to quantize the CE level.
Lipids were extracted as described above. Cells with indicated treatments were collected and counted. […]

[7] = Tissue distribution of avasimibe by LC-MS, 2 hr post administration; type: in vivo, PC3 tumor xenograft nude mice; conditions: oral avasimibe 15 mg/kg
Procedure: To measure the bioavailability of avasimibe in tissues, avasimin solution in PBS (75 mg/kg, containing 15 mg/kg avasimibe) was intravenously administered to PC3 tumor xenograft nude mice (n=3) through the tail vein. avasimibe solution in PBS (15 mg/kg) was also orally administered to PC3 tumor xenograft nude mice (n=3). At 2 hr-post injection, the mice were sacrificed, and the tissues and urine were harvested and weighed. After adding PBS (100 μl per […] tissue), the tissues were homogenized using a bead based homogenizer (Precellys®24, bertin technologies). Avasimibe was extracted from the homogenized tissue solution according to the same procedure used in avasimibe extraction from blood sample. Avasimibe in the tissue, urine, and feces specimens was quantified by LC-MS using the same conditions as the blood-bioavailability study. The amounts of avasimibe were quantitatively determined based on the calibration curve of avasimibe in blood.

MIA PaCa-2 cells = experiment: Annexin V/propidium iodide staining and cell cycle analysis by flow cytometry; type: cell-based, human
pancreatic cancer cells [8] = experiment: Biochemical assay of free cholesterol in cells; type: cell-based, human; conditions: low to high concentration
Procedure: Lipid extraction from cell pellets and tissues was performed according to Folch et al (Folch J et al. (1957) J Biol Chem 226(1):497-509.). Cells with indicated treatments were collected and counted. CE and free cholesterol were measured according to the manufacturer's protocol (Amplex Red Cholesterol kit from Molecular Probes), and finally normalized by cell number.

[9] = system: cancer cells (PC3, MIA-PaCa2, A549, HCT116) and normal cells (hVSMC, BR5); experiment: Cell viability of cancer and normal cells; type: cell-based, human; conditions: conventional chemotherapeutics, comparison
[10] = 15 mg/kg per day intraperitoneally, 4 weeks

CC(C)c1cc(C(C)C)c(CC(=O)NS(=O)(=O)Oc2c(C(C)C)cccc2C(C)C)c(C(C)C)c1 [avasimibe]
cell invasion rate (MIA PaCa-2 cell; transwell with Matrigel, 24 h): significantly reduced
cell migration rate (MIA PaCa-2 cell; transwell, 12 h): significantly reduced
proliferation rate of PANC-1 cells (PANC-1; 10 μM): significantly reduced the proliferation rate
IC50 (PANC-1; Homo sapiens, PANC-1): 23.6 µM
AUC [1]: 3250 ng·h/mL
IC50 (HPDE6): 52.8 µM
IC50 (PC3 cells): 17 µM
effect in combination with gemcitabine (tumors): synergistic effect
CE amount in tumor (SRS imaging and Raman) ([2]; 15 mg/kg per day intraperitoneally): Reduction of CE amount
body weight [2, 10]: did not induce body weight loss
metastatic lesions in lymph nodes and distant organs [2, 10]: largely suppressed
tumor size, tumor growth rate, tumor volume and weight [2, 10]: significantly suppressed
apoptotic cells in tumor tissues (TUNEL) ([2]; mouse, in vivo): Increased apoptotic cells
free cholesterol in mouse pancreatic tumor tissues ([2]; mouse, in vivo): Increased free cholesterol
uptake of DiI labeled LDL (pancreatic cancer cells [3]): significantly reduced uptake of LDL
proliferation rate of MIA PaCa-2 cells (MIA PaCa-2; 10 μM): significantly reduced the proliferation rate
IC50 (MIA PaCa-2; Homo sapiens, MIA PaCa-2): 11 µM
ATF4 level [4]: increase of transcription factor ATF4 within 12 hours
CHOP expression [4]: appeared after 12 hour treatment and increased from 12 to 48 hour
GRP78 expression level [4]: gradually increased over time
replacement of warfarin at the primary binding site of HSA ([5]; avasimibe:HSA 16:1, warfarin:HSA 10:1): complete replacement of warfarin
binding affinity to HSA, compared with warfarin ([5]; inferred from complete replacement of warfarin): > 189000 M⁻¹
CE level in pancreatic cancer cells (pancreatic cancer cells [6]): effectively removed CE
excretion of avasimibe through feces [7]: considerable amount of avasimibe was excreted through the feces
avasimibe in the tumor tissue ([7]; 2 hr): not detectable
main tissue of avasimibe distribution ([7]; 2 hr): most avasimibe was found in the liver tissue
number of apoptotic cells (MIA PaCa-2 cells): largely increased
free cholesterol levels in cells (pancreatic cancer cells [8]): gradually increased

Nc1ccn([C@@H]2O[C@H](CO)[C@@H](O)C2(F)F)c(=O)n1 [gemcitabine]
selectivity of cytotoxic effect [9]: non-selective cytotoxic effects
